Data as given in US20040171543A1, “Matrix metalloproteinase inhibitors and methods for identification of lead compounds” (priority 2002, published 2004).

Assays:
Assay type in all cases: biochemical
[1] = biological target: T1, MMP-9 full length (9FL) (Homo sapiens, UniProt P14780); assay: Fluorigenic peptide-1 substrate based assay, MMP-9, with/without AcNHOH
T1 construct: purchased Calbiochem; host or cells: stimulated neutrophils
From the text: MMP-9 may be obtained from commercial sources. For example, full-length pro-MMP-9 purified from stimulated neutrophils is available from Calbiochem.

[2] = biological target: T2, MMP-13 catalytic domain (MMP-13CD) (Homo sapiens, UniProt P45452); assay: Fluorigenic peptide-1 substrate based assay, MMP-13CD, with/without AcNHOH; conditions: IC50 with AcNHOH divided by IC50 without, listed as drawing 47
T2 construct: The catalytic domain of the MMP-13 enzyme, namely matrix metalloproteinase-13 catalytic domain (“MMP-13CD”)
Description: The catalytic domain of the MMP-13 enzyme, namely matrix metalloproteinase-13 catalytic domain (“MMP-13CD”), rather than the corresponding full-length enzyme, MMP-13 was used in such assay.
50 mM HEPES buffer (pH 7.0)
2% DMSO (with or without inhibitor test compound)
1. Dispensed 2 μL inhibitor test sample (in 100% DMSO) into well.
2. Added 88 μL assay mixture and mixed well, avoiding bubbles.
3. Initiated reactions with 10 μL of 5 nM MMP-13CD; mixed well, avoiding bubbles.
4. Immediately measured the kinetics of the reactions at room temperature.
Alternatively, an endpoint read can also be used to determine reaction velocity provided the initial fluorescence of the solution, as recorded before addition of enzyme, is subtracted from the final fluorescence of the reaction mixture.

[3] = biological target: T3, MMP-2 full length (2FL) (Homo sapiens, UniProt P08253); assay: Fluorigenic peptide-1 substrate based assay, MMP-2, with/without AcNHOH
T3 sequence (P08253 110-660): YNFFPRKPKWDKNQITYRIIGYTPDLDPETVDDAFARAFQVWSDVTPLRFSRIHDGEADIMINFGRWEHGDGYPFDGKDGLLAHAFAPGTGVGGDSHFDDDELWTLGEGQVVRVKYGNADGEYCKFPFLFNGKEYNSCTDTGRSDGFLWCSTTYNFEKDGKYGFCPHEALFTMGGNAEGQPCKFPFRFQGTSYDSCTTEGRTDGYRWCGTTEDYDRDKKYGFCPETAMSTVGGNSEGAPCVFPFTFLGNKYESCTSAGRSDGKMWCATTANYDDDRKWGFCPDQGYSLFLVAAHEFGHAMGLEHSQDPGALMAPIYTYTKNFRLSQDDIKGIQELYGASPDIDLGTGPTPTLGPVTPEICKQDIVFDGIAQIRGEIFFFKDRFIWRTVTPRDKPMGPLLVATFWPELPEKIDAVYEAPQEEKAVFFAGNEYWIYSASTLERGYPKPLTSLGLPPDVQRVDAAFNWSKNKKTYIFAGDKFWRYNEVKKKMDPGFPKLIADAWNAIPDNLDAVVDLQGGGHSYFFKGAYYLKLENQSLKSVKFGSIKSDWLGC

[4] = biological target: T4, MMP-2 (Homo sapiens, UniProt P08253); assay: Steady-state kinetics of the mechanism of inhibition of MMP-2; conditions: 6 inhibitor concentrations 0 to 600 nanomolar, FIG. 8
T4 sequence (P08253 110-660): T3 sequence (P08253 110-660)
From the text: In FIG. 8, 1 over the initial velocity Vo, which is the initial rate of product formation in a steady state kinetics assay, is plotted on the Y-axis versus 1 over concentration of substrate [S] used in the assay on the X-axis for inhibition of MMP-2 with N-[(3-phenylisoxazol-5-ylmethyl)-aminothiocarbonyl]-benzamide at 6 concentrations of from 0 nanomolar to 600 nanomolar.

T1 sequence (P14780 107-707 limits assumed): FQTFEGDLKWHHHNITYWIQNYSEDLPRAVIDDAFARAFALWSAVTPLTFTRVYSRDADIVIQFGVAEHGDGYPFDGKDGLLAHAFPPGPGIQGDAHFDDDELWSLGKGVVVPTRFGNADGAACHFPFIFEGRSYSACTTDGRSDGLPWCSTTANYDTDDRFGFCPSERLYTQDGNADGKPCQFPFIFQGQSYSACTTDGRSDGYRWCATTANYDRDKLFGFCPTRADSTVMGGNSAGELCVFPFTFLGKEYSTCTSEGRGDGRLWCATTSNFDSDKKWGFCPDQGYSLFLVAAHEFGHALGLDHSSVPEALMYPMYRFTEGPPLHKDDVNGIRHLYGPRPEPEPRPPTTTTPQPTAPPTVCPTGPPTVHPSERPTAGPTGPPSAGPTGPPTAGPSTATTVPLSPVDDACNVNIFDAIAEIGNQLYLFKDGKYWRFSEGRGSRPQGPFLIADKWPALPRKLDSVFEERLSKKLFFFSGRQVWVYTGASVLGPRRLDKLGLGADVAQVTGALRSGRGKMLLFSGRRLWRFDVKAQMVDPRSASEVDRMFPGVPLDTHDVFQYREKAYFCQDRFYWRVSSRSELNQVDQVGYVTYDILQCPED

IC50 Ratio (±) [1]: 0.39
IC50 Ratio (±) [2]: 0.09
IC50 Ratio (±) [3]: 0.10
Mechanism of inhibition of MMP-2 [4]: uncompetitive inhibitor
Structure (SMILES): O=C(NC(=S)NCc1cc(-c2ccccc2)no1)c1ccccc1 [N-[(3-phenylisoxazol-5-ylmethyl)-aminothiocarbonyl]-benzamide]
